In PMC9090415, “Discovery of small molecule inhibitors of Plasmodium falciparum apicoplast DNA polymerase” (Journal of Enzyme Inhibition and Medicinal Chemistry, 2022):

Target: P. falciparum apicoplast DNA polymerase (Pf-apPOL) (Plasmodium falciparum, UniProt Q8ILY1)
Experiment: Fluorescence-based high-throughput DNA polymerase assay (molecular beacon), primary screen and dose-response
Format: biochemical
Conditions: for DNA Pol: unit not given, 90 min, 10 µM; for % inhibition Apo pol 10' 2.5 / % inhibition Apo pol 10' 5 / % inhibition Apo pol 10' 10 / % inhibition Apo pol 10' 20 / % inhibition Apo pol 10' 40 / % inhibition Apo pol 10' 80: read at 10'; for % inhibition Apo pol 10' 5 / % inhibition Apol 90' 5 / % inhibition apPOL 180' 5 / % inhibition Apo pol 5' 5 / % inhibition Apol 40' 5 / % inhibition ApPOL 90' 5: concentration 5; for % inhibition Apo pol 10' 80 / % inhibition Apol 90' 80 / % inhibition apPOL 180' 80 / % inhibition Apo pol 5' 80 / % inhibition Apol 40' 80 / % inhibition ApPOL 90' 80: concentration 80; for % inhibition Apol 90' 2.5 / % inhibition Apol 90' 5 / % inhibition Apol 90' 10 / % inhibition Apol 90' 20 / % inhibition Apol 90' 40 / % inhibition Apol 90' 80 / % inhibition ApPOL 90' 2.5 / % inhibition ApPOL 90' 5 / % inhibition ApPOL 90' 10 / % inhibition ApPOL 90' 20 / % inhibition ApPOL 90' 40 / % inhibition ApPOL 90' 80: read at 90'; for % inhibition apPOL 180' 2.5 / % inhibition apPOL 180' 5 / % inhibition apPOL 180' 10 / % inhibition apPOL 180' 20 / % inhibition apPOL 180' 40 / % inhibition apPOL 180' 80: read at 180'; for % inhibition Apo pol 5' 2.5 / % inhibition Apo pol 5' 5 / % inhibition Apo pol 5' 10 / % inhibition Apo pol 5' 20 / % inhibition Apo pol 5' 40 / % inhibition Apo pol 5' 80: read at 5'; for % inhibition Apol 40' 2.5 / % inhibition Apol 40' 5 / % inhibition Apol 40' 10 / % inhibition Apol 40' 20 / % inhibition Apol 40' 40 / % inhibition Apol 40' 80: read at 40'
Method in brief: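 Single-point screening used 10 µM compound with 20 nM polymerase, 20 nM hairpin substrate and 6 µM dNTPs for 90 min at 25 °C. Confirmatory titrations (2.5–80 µM) followed fluorescence at three times, and IC50 was derived from a fit including a cooperativity term n.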

[1] = 186 hits, DNA Pol (screen value)

Sequence of P. falciparum apicoplast DNA polymerase (Pf-apPOL) (Q8ILY1 entry or part of it): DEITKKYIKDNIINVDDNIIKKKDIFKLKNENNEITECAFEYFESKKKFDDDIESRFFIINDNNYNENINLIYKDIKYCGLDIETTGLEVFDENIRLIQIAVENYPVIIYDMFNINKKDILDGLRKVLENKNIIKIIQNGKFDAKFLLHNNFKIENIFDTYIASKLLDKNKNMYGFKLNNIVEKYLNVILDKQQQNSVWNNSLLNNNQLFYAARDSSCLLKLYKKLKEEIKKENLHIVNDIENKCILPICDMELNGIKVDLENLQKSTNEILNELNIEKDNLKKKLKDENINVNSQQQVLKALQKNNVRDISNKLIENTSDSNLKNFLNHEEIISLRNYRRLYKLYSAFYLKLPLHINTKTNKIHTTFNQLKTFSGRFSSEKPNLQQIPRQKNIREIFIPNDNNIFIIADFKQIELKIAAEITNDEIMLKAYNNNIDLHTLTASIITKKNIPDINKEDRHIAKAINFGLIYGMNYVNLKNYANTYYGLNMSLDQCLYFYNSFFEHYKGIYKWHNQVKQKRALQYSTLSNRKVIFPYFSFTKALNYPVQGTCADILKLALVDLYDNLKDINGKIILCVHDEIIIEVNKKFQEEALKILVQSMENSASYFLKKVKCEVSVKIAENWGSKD

## O=C1CSC2=NC3=C(CCc4ccccc43)C(c3cccs3)N12 (centres unmarked) [Molecule 59, O=C1CSC2=NC3=C(C(N12)c1cccs1)CCc1c3cccc1]
[1]
  DNA Pol: 63
'DNA Pol' (screen value)
  DNA Pol: 63
DRC-1, concentration 2.5
  % inhibition Apo pol 10' 2.5: 4.043%
  % inhibition Apol 90' 2.5: -1.656%
  % inhibition apPOL 180' 2.5: -6.428%
DRC-1
  % inhibition Apo pol 10' 5: 24.0896%
  % inhibition Apo pol 10' 80: 63.2791%
  % inhibition Apol 90' 5: 10.7696%
  % inhibition Apol 90' 80: 67.4831%
  % inhibition apPOL 180' 5: -0.2424%
  % inhibition apPOL 180' 80: 61.292%
DRC-1, concentration 10
  % inhibition Apo pol 10' 10: 41.1279%
  % inhibition Apol 90' 10: 22.0098%
  % inhibition apPOL 180' 10: 9.04%
DRC-1, concentration 20
  % inhibition Apo pol 10' 20: 53.1812%
  % inhibition Apol 90' 20: 35.5266%
  % inhibition apPOL 180' 20: 18.673%
DRC-1, concentration 40
  % inhibition Apo pol 10' 40: 67.0288%
  % inhibition Apol 90' 40: 60.0258%
  % inhibition apPOL 180' 40: 46.5795%
DRC-2, concentration 10
  % inhibition Apo pol 5': 28%
  % inhibition Apol 40': 28%
  % inhibition Apo pol 5' 10: 28%
  % inhibition Apol 40' 10: 28%
  % inhibition ApPOL 90' 10: 22%
  % inhibition apPOL 180' 10: 11%
DRC-2, concentration 40
  % inhibition Apol 40': 45%
  % inhibition ApPOL 90': 45%
  % inhibition Apo pol 5' 40: 31%
  % inhibition Apol 40' 40: 45%
  % inhibition ApPOL 90' 40: 45%
  % inhibition apPOL 180' 40: 38%
DRC-2, concentration 2.5
  % inhibition Apo pol 5' 2.5: 3.73%
  % inhibition Apol 40' 2.5: 3%
  % inhibition ApPOL 90' 2.5: -1.13%
  % inhibition apPOL 180' 2.5: -8%
DRC-2
  % inhibition Apo pol 5' 5: 15%
  % inhibition Apo pol 5' 80: 23%
  % inhibition Apol 40' 5: 14%
  % inhibition Apol 40' 80: 48%
  % inhibition ApPOL 90' 5: 10%
  % inhibition ApPOL 90' 80: 52%
  % inhibition apPOL 180' 5: 2.64%
  % inhibition apPOL 180' 80: 55%
DRC-2, concentration 20
  % inhibition Apo pol 5' 20: 33%
  % inhibition Apol 40' 20: 39%
  % inhibition ApPOL 90' 20: 35%
  % inhibition apPOL 180' 20: 24%

## CC(=O)OCC1=C(C(=O)[O-])N2C(=O)[C@@H](NC(=O)Cc3cccs3)[C@H]2SC1.[Na+] [Molecule 73, CC(=O)OCC1=C(C(=O)[O-])N2[C@H](SC1)[C@@H](C2=O)NC(=O)Cc1cccs1.[Na+]]
[1]
  DNA Pol: 62
'DNA Pol' (screen value)
  DNA Pol: 62
DRC-1, concentration 2.5
  % inhibition Apo pol 10' 2.5: 15.9246%
  % inhibition Apol 90' 2.5: -0.64%
  % inhibition apPOL 180' 2.5: -8.644%
DRC-1
  % inhibition Apo pol 10' 5: 24.2196%
  % inhibition Apo pol 10' 80: 83.4409%
  % inhibition Apol 90' 5: -0.282%
  % inhibition Apol 90' 80: 67.9349%
  % inhibition apPOL 180' 5: -9.547%
  % inhibition apPOL 180' 80: 56.6871%
DRC-1, concentration 10
  % inhibition Apo pol 10' 10: 38.6298%
  % inhibition Apol 90' 10: 6.863%
  % inhibition apPOL 180' 10: -4.869%
DRC-1, concentration 20
  % inhibition Apo pol 10' 20: 52.9189%
  % inhibition Apol 90' 20: 14.2955%
  % inhibition apPOL 180' 20: -0.1262%
DRC-1, concentration 40
  % inhibition Apo pol 10' 40: 72.9017%
  % inhibition Apol 90' 40: 36.8577%
  % inhibition apPOL 180' 40: 18.2499%
DRC-2, concentration 2.5
  % inhibition Apol 40': 1.25%
  % inhibition ApPOL 90': 1.25%
  % inhibition Apo pol 5' 2.5: 3%
  % inhibition Apol 40' 2.5: 1.25%
  % inhibition ApPOL 90' 2.5: 1.25%
  % inhibition apPOL 180' 2.5: -0.311%
DRC-2, concentration 20
  % inhibition Apol 40': 29%
  % inhibition Apo pol 5' 20: 36%
  % inhibition Apol 40' 20: 29%
  % inhibition ApPOL 90' 20: 20%
  % inhibition apPOL 180' 20: 10%
DRC-2, concentration 40
  % inhibition apPOL 180': 29%
  % inhibition Apo pol 5' 40: 43%
  % inhibition Apol 40' 40: 45%
  % inhibition ApPOL 90' 40: 39%
  % inhibition apPOL 180' 40: 29%
DRC-2
  % inhibition Apo pol 5' 5: 6.34%
  % inhibition Apo pol 5' 80: 50%
  % inhibition Apol 40' 5: 2%
  % inhibition Apol 40' 80: 62%
  % inhibition ApPOL 90' 5: -1.85%
  % inhibition ApPOL 90' 80: 63%
  % inhibition apPOL 180' 5: -7%
  % inhibition apPOL 180' 80: 60%
DRC-2, concentration 10
  % inhibition Apo pol 5' 10: 22%
  % inhibition Apol 40' 10: 13%
  % inhibition ApPOL 90' 10: 5%
  % inhibition apPOL 180' 10: -2.83%

## N#Cc1c(O)nc(N2CCCCC2)nc1-c1ccc2c(c1)OCO2 [KU0083146]
[1]
  DNA Pol: 49
'DNA Pol' (screen value)
  DNA Pol: 49
DRC-1, concentration 2.5
  % inhibition Apo pol 10' 2.5: 13.1271%
  % inhibition Apol 90' 2.5: 5.9065%
  % inhibition apPOL 180' 2.5: -1.148%
DRC-1
  % inhibition Apo pol 10' 5: 26.6749%
  % inhibition Apo pol 10' 80: 78.8965%
  % inhibition Apol 90' 5: 16.8272%
  % inhibition Apol 90' 80: 71.163%
  % inhibition apPOL 180' 5: 6.188%
  % inhibition apPOL 180' 80: 62.3261%
DRC-1, concentration 10
  % inhibition Apo pol 10' 10: 53.7038%
  % inhibition Apol 90' 10: 42.1383%
  % inhibition apPOL 180' 10: 30.2008%
DRC-1, concentration 20
  % inhibition Apo pol 10' 20: 55.5357%
  % inhibition Apol 90' 20: 45.0693%
  % inhibition apPOL 180' 20: 34.0367%
DRC-1, concentration 40
  % inhibition Apo pol 10' 40: 66.277%
  % inhibition Apol 90' 40: 57.8585%
  % inhibition apPOL 180' 40: 46.9072%
DRC-2, concentration 2.5
  % inhibition Apo pol 5': 13%
  % inhibition Apol 40': 13%
  % inhibition Apo pol 5' 2.5: 13%
  % inhibition Apol 40' 2.5: 13%
  % inhibition ApPOL 90' 2.5: 11%
  % inhibition apPOL 180' 2.5: 5.4%
DRC-2, concentration 10
  % inhibition Apo pol 5': 33%
  % inhibition Apol 40': 33%
  % inhibition Apo pol 5' 10: 33%
  % inhibition Apol 40' 10: 33%
  % inhibition ApPOL 90' 10: 31%
  % inhibition apPOL 180' 10: 23%
DRC-2, concentration 40
  % inhibition Apo pol 5': 53%
  % inhibition apPOL 180': 53%
  % inhibition Apo pol 5' 40: 53%
  % inhibition Apol 40' 40: 60%
  % inhibition ApPOL 90' 40: 59%
  % inhibition apPOL 180' 40: 53%
DRC-2
  % inhibition Apo pol 5' 5: 27%
  % inhibition Apo pol 5' 80: 57%
  % inhibition Apol 40' 5: 28%
  % inhibition Apol 40' 80: 65%
  % inhibition ApPOL 90' 5: 26%
  % inhibition ApPOL 90' 80: 66%
  % inhibition apPOL 180' 5: 17%
  % inhibition apPOL 180' 80: 61%
DRC-2, concentration 20
  % inhibition Apo pol 5' 20: 44%
  % inhibition Apol 40' 20: 49%
  % inhibition ApPOL 90' 20: 47%
  % inhibition apPOL 180' 20: 40%
